Results taken from patent US8501683B2, “Cycloundecadepsipeptide compounds and use of said compounds as a medicament” (priority 2008, dated 2013).
Square brackets hold non-standard residues; d marks the D form. Peptide text beside a SMILES is read from it. MeBmt = C/C=C/C[C@@H](C)[C@@H](O)[C@H](NC)C(=O)O; NMeI = CC[C@H](C)[C@H](NC)C(=O)O; NEtVal = CCN[C@H](C(=O)O)C(C)C; NMeL = CN[C@@H](CC(C)C)C(=O)O; NMeV = CN[C@H](C(=O)O)C(C)C; dHiv = CC(C)[C@@H](O)C(=O)O; dNMeA = CN[C@H](C)C(=O)O; Abu = CC[C@H](N)C(=O)O; Sar = CNCC(=O)O

Legend:
[1] = Cytostatic/cytotoxic effect, MTT (MTS) assay in Huh 9-13 cells; assay type: cell-based; conditions: metabolic activity reduced to 50% of untreated cells
Text: Assays used Huh 9-13 containing the hepatitis C virus genotype 1b Con1 replicon (Lohmann et al. 2001. J. Virol. 75:1437-1449; and Lohmann et al. 1999. Science. 285:110-113). Cells were sub-cultured in cell growth medium DMEM supplemented with 10% FCS, 1% non-essential amino acids, 1% penicillin/streptomycin and 2% Geneticin (Invitrogen) at a ratio of 1:4-1:5 and grown for 3-4 days in 75 cm^2 tissue culture flasks (Techno Plastic Products), were harvested and seeded in assay medium (DMEM, 10% FCS, 1% non-essential amino acids, 1% penicillin/streptomycin) at a density of 5 000 cells/well (100 μl/well) in 96-well tissue culture microtiter plates (Falcon, Beckton Dickinson) for evaluation of cytostatic/cytotoxic and antiviral effect. The microtiter plates were incubated overnight (37° C., 5% CO2, 95-99% relative humidity), yielding a non-confluent cell monolayer.
Cell density and cytostatic effects were estimated in parallel cultures in regular 96-well plates (Beckton-Dickinson) using the MTT assay (CellTiter 96 AQueous Non-Radioactive Cell Proliferation Assay, Promega). In this assay, 3-(4,5-dimethyl-thiazol-2-yl)-5-(3-carboxymethoxy-phenyl)-2-(4-sulfophenyl)-2H-tetrazolium (MTS) is bioreduced to a formazan that is quantified at 498 nm in a plate reader. Formazan production is directly correlated with number of life cells. Absorbance was measured at a wavelength of 498 nm (Safire^2, Tecan) and optical densities (OD values) were converted to percentage of untreated controls.
The compounds were dissolved in DMSO at a concentration of 4 mmole/L. Stock solutions were immediately used to set up the experiments. The compounds were tested at 24 different concentrations ranging from 0.0001 μmole/L to 100 μmole/L. The highest concentration of DMSO in the assay was determined to be 2.5% (at 100 μM final concentration of the compound). During the assay setup, the DMSO percentage decreased concomitantly with decrease in concentration of the compound.
The EC50 (value derived from the dose-response curve) represents the concentration at which 50% inhibition of viral replication is observed. The CC50 (value derived from the dose-response curve) represents the concentration at which the metabolic activity of the cells is reduced to 50% of the metabolic activity of untreated cells.
Results from these experiments permitted calculation of EC50±SD (standard deviation or Std. Dev.), which is the effective concentration required to inhibit HCV replicon replication by 50%, and of CC50±SD (whenever possible), which is the concentration required that inhibits the proliferation of exponentially growing cells by 50%. EC50 and CC50±SD values were calculated respectively as the median of all the EC50, or CC50 values derived from the 3 individual dose-response curves. The selectivity index (SI), indicative of the therapeutic window of the compound was calculated as the ratio between CC50 and EC50.

[2] = system: hepatitis C virus genotype 1b Con1 replicon; experiment: HCV replicon assay, replicon RNA by RT-qPCR in Huh 9-13 cells; assay type: cell-based; conditions: 50% inhibition of HCV replicon replication, 3 dose-response curves
Method: For the evaluation of antiviral effects, assay medium was aspirated and the plates with dry monolayer were stored at −80° C. awaiting extraction. Following thawing of the plates at room temperature, the cell monolayer was lysed with 100 μl of cell-to-cDNA lysis buffer (Invitrogen). Lysis of the cells was allowed to proceed for 10 min at room temperature after which all liquid was transferred to a PCR plate (Axygen). The PCR plate was incubated for 15 min at 75° C. […] The lysate was diluted 1:2 with RNase/DNase-free water, after which 5 μl was transferred to the real-time PCR plate (Applied Biosystems).
Replicon RNA content was quantified using a real-time quantitative one-step RT-PCR method (RT-qPCR): Low Rox One-Step RT-qPCR master mix, Abgene). […] The fluorogenic probe was 5′-[sequence]-3′. The analysis of the samples were performed using a SDS7500F (Applied Biosystems, standard thermocycling profile: 30 min at 48° C., 10 min at 95° C., 40 cycles of 15 sec at 95° C. and 1 min at 60° C.) after which replicon RNA quantities were converted to percentage of untreated controls.

[3] = molecular target: multidrug resistance associated protein 2 (MRP2) (Homo sapiens, UniProt Q92887)
Method: (§1) To determine whether the cycloundecadepsipeptide compounds of the present invention interact with hepatic transporters, experiments were carried out that compared the concentration-dependent inhibition towards the multidrug resistance associated protein 2 (MRP2), the organic anion transporting polypeptide 1B1 (OATP1B1), the bile salt export pump (BSEP) and the sodium-taurocholate cotransporting polypeptide (NTCP). These transporters are involved in the hepatobiliary circulation of endogenous compounds such as bile salts or bilirubin (for a review, see C. Pauli-Magnus et al, J. Hepatology, 2005, 43:342-357). Some of them also contribute to the elimination of xenobiotics.
(§2) MRP2 and BSEP were expressed by SOLVO Biotechnology in Spodoptera frugiperda (Sf9) ovarian cells, by infecting the insect cells with a recombinant baculovirus. The inhibition of the transport of the radioactive probe substrates (estradiol-17-beta-glucuronide and taurocholate for MRP2 and BSEP, respectively) into inside-out membrane vesicles, containing the transporter, was measured by scintillation counting.
(§3) The IC50 (defined as the concentration required for inhibiting the transport of the probe substrate by 50%, half maximal inhibitory concentration) of the compounds was derived from the concentration-response curve and compared to the IC50 of Debio 025 (IC50 ratio expressed as “fold Debio 025” in the tables).

[4] = molecular target: bile salt export pump (BSEP) (Homo sapiens, UniProt O95342); conditions: for BSEP fold Debio 025: IC50 ratio compared to Debio 025
Method: as §1, §2, §3

[5] = system: Concanavalin-A-induced T-cell proliferation; experiment: Concanavalin-A-induced T-cell proliferation assay (immunosuppression); assay type: cell-based; conditions: inhibition of Concanavalin-A-induced T-cell proliferation
Method: To determine whether the cycloundecadepsipepide compounds of the present invention have a non-immunosuppression activity, experiments were carried out that compared the dose-dependent inhibition of Concanavalin-A-induced T-cell proliferation (see Table 2).
The method of the assays were performed as described by Dayton et al. (1992. Mol. Pharmacol. 41. 671-676) and Mishell et al. (1980. Cell proliferation in selected methods in cellular immunology, V, XXIX, W.H. Freeman Co., San Francisco, Calif. 153-160).

[6] = molecular target: T1, sodium-taurocholate cotransporting polypeptide (NTCP) (Homo sapiens, UniProt Q14973); experiment: NTCP inhibition, taurocholate uptake in CHO cells; assay type: in vitro ADME; conditions: for NTCP IC50 / IC50: probe taurocholate, CHO cells; for NTCP fold Debio 025: IC50 ratio compared to Debio 025
T1 sequence (Q14973 1-349): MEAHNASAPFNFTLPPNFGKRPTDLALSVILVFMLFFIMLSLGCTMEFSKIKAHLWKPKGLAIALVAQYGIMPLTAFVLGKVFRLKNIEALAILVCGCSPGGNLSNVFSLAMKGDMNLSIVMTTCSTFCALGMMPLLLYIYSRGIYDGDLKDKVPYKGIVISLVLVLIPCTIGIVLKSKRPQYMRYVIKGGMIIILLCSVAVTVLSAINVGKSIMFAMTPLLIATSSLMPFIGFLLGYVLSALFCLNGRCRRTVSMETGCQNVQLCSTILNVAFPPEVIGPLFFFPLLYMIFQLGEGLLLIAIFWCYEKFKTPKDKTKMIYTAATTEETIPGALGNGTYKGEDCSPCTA

[7] = molecular target: organic anion transporting polypeptide 1B1 (OATP1B1) (Homo sapiens, UniProt Q9Y6L6)
Method: as §1
OATP1B1 and NTCP assays were performed with Chinese hamster ovary (CHO) cells expressing these human uptake transporters. The amount of the transported probe substrate (estrone-3-sulfate and taurocholate for OATP1B1 and NTCP, respectively) was determined by liquid scintillation or fluorescent photometry after cell lysis.
as §3

[8] = human, Huh 9-13 cells containing the HCV genotype 1b Con1 replicon

Sequence of bile salt export pump (BSEP) (O95342 whole entry): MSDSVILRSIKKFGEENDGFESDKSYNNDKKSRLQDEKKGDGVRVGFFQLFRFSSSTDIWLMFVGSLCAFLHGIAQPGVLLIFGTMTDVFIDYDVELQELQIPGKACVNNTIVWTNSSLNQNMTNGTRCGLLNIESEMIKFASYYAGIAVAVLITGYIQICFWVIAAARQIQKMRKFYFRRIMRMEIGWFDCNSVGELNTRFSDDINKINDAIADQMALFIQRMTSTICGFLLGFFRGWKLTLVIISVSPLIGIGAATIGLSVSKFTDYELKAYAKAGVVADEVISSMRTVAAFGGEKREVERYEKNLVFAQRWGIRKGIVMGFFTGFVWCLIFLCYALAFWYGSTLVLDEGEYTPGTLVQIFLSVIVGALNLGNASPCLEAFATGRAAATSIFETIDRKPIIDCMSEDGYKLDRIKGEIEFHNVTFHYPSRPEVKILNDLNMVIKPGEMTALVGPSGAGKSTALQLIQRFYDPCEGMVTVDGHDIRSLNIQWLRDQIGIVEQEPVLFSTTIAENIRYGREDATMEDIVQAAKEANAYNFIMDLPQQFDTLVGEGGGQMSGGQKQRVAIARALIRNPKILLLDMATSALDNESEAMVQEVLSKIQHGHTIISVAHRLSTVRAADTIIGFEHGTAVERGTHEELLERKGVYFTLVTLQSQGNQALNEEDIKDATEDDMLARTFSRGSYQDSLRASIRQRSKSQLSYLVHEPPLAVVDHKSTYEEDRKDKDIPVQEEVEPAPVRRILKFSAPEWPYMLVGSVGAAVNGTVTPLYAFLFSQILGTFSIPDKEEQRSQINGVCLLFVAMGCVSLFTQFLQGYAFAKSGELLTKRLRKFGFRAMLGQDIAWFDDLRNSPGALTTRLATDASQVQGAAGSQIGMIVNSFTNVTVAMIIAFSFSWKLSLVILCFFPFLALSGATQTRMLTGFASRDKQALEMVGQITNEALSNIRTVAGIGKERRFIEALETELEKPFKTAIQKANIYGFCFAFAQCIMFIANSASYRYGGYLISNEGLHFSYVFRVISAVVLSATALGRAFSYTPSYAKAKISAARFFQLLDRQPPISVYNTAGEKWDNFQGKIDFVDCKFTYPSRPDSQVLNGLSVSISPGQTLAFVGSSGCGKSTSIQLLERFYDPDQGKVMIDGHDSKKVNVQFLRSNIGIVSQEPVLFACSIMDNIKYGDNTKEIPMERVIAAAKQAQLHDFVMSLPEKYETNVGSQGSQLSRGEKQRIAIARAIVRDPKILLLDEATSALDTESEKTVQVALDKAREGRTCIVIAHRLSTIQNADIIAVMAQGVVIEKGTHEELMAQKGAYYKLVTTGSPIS
Sequence of organic anion transporting polypeptide 1B1 (OATP1B1) (Q9Y6L6 whole entry): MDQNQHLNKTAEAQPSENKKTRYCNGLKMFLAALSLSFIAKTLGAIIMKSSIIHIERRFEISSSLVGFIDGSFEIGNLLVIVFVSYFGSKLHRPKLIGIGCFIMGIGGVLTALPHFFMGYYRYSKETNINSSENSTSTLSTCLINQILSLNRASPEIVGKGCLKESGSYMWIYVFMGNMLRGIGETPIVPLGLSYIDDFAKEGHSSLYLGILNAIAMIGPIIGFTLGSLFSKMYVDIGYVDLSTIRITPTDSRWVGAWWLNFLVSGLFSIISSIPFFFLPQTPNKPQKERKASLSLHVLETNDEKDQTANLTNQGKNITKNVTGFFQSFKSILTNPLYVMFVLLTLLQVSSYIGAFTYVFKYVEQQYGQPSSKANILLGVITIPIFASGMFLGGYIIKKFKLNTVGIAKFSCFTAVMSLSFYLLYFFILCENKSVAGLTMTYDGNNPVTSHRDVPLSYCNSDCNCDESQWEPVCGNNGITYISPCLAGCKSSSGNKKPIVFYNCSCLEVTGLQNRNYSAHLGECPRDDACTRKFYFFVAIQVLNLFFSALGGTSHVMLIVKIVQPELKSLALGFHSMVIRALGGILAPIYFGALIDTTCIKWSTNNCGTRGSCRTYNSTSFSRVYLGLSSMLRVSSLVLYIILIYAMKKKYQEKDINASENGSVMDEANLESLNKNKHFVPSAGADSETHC
Sequence of multidrug resistance associated protein 2 (MRP2) (Q92887 whole entry): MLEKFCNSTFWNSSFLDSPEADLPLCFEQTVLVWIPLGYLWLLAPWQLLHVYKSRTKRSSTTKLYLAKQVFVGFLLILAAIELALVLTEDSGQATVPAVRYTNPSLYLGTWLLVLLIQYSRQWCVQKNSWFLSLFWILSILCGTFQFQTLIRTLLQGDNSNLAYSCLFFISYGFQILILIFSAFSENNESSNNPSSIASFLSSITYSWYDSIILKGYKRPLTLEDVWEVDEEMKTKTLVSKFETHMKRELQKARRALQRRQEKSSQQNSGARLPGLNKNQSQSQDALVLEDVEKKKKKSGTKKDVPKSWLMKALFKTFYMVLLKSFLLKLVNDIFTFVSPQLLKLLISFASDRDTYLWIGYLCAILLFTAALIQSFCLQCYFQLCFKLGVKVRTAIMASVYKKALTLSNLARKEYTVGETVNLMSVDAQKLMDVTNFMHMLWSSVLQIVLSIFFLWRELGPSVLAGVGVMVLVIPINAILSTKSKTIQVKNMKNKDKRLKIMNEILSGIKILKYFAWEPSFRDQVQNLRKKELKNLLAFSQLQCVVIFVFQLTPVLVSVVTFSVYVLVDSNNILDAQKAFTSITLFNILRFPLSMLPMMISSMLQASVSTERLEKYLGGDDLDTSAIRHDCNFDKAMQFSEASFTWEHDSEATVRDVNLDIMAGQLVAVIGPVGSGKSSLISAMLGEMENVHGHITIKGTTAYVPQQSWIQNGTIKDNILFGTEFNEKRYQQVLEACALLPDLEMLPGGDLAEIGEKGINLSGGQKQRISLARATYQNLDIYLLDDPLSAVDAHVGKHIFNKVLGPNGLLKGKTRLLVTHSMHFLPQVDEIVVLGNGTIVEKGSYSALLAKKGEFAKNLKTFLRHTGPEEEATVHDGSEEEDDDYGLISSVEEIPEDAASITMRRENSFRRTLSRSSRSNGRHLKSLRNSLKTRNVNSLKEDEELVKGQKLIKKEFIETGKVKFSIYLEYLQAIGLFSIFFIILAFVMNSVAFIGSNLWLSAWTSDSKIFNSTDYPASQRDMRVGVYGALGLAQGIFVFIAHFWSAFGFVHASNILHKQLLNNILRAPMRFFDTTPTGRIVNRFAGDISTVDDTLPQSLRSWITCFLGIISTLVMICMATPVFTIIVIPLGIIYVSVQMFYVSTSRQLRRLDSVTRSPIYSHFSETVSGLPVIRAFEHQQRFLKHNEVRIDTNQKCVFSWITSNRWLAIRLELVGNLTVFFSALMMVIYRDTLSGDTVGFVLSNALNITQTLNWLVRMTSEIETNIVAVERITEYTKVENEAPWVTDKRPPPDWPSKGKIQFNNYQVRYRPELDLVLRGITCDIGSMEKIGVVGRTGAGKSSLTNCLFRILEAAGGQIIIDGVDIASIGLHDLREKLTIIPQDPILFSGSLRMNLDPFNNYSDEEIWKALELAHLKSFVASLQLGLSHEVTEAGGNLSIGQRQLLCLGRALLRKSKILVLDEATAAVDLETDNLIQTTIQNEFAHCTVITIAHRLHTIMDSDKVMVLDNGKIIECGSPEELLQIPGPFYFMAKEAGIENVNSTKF

Row | Compound | CC50 [1] | CC50 [1, 8] | EC50 [2] | MRP2 IC50 [3] | IC50 [4] | BSEP fold Debio 025 [4] | IC50 [5] | NTCP IC50 [6] | IC50 [7] | OATP1B fold Debio 025 [7] | NTCP fold Debio 025 [6] | IC50 [6] | IC50 [3] | MRP2 fold Debio 025 ([3]; IC50 ratio compared to Debio 025)
1 | C/C=C/C[C@@H](C)[C@@H](O)[C@H]1C(=O)N[C@@H](CC)C(=O)N(C)[C@H](C)C(=O)N(C)[C@@H](C(C)C)C(=O)N[C@@H]([C@@H](C)CC)C(=O)N(C)[C@@H](CC(C)C)C(=O)NCC(=O)O[C@H](C(C)C)C(=O)N(C)[C@@H](CC(C)C)C(=O)N[C@@H](CC(C)C)C(=O)N(C)[C@@H](C(C)C)C(=O)N1C [(Ig), cyclo-(MeBmt-Abu-D-MeAla-MeVal-Ile-MeLeu-Gly-D-Hiv-MeLeu-Leu-MeVal)] (cyclo([Abu][dNMeA][NMeV]I[NMeL]G[dHiv][NMeL]L[NMeV][MeBmt])) | 67000 nM | – | – | – | – | – | – | – | – | – | – | – | – | –
2 | C/C=C/C[C@@H](C)[C@@H](O)[C@H]1C(=O)N[C@@H](C(C)C)C(=O)N(C)[C@H](C)C(=O)N(C)[C@@H](C(C)C)C(=O)N[C@@H](C(C)C)C(=O)N(C)CC(=O)NCC(=O)O[C@H](C(C)C)C(=O)N(C)[C@@H](CC(C)C)C(=O)N[C@@H](CC(C)C)C(=O)N(C)[C@@H](C(C)C)C(=O)N1C [(Ik), cyclo-(MeBmt-Val-D-MeAla-MeVal-Val-Sar-Gly-D-Hiv-MeLeu-Leu-MeVal)] (cyclo(G[dHiv][NMeL]L[NMeV][MeBmt]V[dNMeA][NMeV]V[Sar])) | 9800 nM | – | – | – | – | – | – | – | – | – | – | – | – | –
3 | C/C=C/C[C@@H](C)[C@@H](O)[C@H]1C(=O)N[C@@H](C(C)C)C(=O)N(C)[C@H](C)C(=O)N(C)[C@@H](C(C)C)C(=O)N[C@@H](CC(C)C)C(=O)N(C)[C@@H](CC(C)C)C(=O)NCC(=O)O[C@H](C(C)C)C(=O)N(C)[C@@H](CC(C)C)C(=O)N[C@@H](CC(C)C)C(=O)N(C)[C@@H](C(C)C)C(=O)N1C [(If), cyclo-(MeBmt-Val-D-MeAla-MeVal-Leu-MeLeu-Gly-D-Hiv-MeLeu-Leu-MeVal)] (cyclo(G[dHiv][NMeL]L[NMeV][MeBmt]V[dNMeA][NMeV]L[NMeL])) | – | 81800 nM | 25 nM | n.i. | 480 nM | 0.50 | 7720 nM | n.i. | 15000 nM | 0.03 | – | – | – | –
4 | C/C=C/C[C@@H](C)[C@@H](O)[C@H]1C(=O)N[C@@H](CC)C(=O)N(C)[C@H](C)C(=O)N(C)[C@@H](C(C)C)C(=O)N[C@@H](CC(C)C)C(=O)N(C)[C@@H](CC(C)C)C(=O)N[C@@H](C)C(=O)O[C@H](C(C)C)C(=O)N(C)[C@@H](CC(C)C)C(=O)N[C@@H](CC(C)C)C(=O)N(C)[C@@H](C(C)C)C(=O)N1C [(Id), cyclo-(MeBmt-Abu-D-MeAla-MeVal-Leu-MeLeu-Ala-D-Hiv-MeLeu-Leu-MeVal)] (cyclo(A[dHiv][NMeL]L[NMeV][MeBmt][Abu][dNMeA][NMeV]L[NMeL])) | – | 44400 nM | 25 nM | n.i. | 570 nM | 0.42 | 1440 nM | – | 7900 nM | 0.05 | 1.2 | 2500 nM | – | –
5 | Cyclosporin A [Cyclosporin A (CsA), reference compound] | – | – | – | – | – | – | 6 nM | – | – | – | – | – | – | –
6 | C/C=C/C[C@@H](C)[C@@H](O)[C@H]1C(=O)N[C@@H](CC)C(=O)N(C)[C@H](C)C(=O)N(CC)[C@@H](C(C)C)C(=O)N[C@@H](C(C)C)C(=O)N(C)[C@@H](CC(C)C)C(=O)N[C@@H](C)C(=O)N[C@H](C)C(=O)N(C)[C@@H](CC(C)C)C(=O)N(C)[C@@H](CC(C)C)C(=O)N(C)[C@@H](C(C)C)C(=O)N1C [Debio 025, [D-MeAla]^3-[EtVal]^4-CsA, reference compound] | – | 2500 nM | 34 nM | – | 240 nM | 1 | – | – | 420 nM | 1 | 1 | 3200 nM | 15000 nM | 1
7 | C/C=C/C[C@@H](C)[C@@H](O)[C@H]1C(=O)N[C@@H](C(C)C)C(=O)N(C)[C@H](C)C(=O)N(CC)[C@@H](C(C)C)C(=O)N[C@@H](CC(C)C)C(=O)N(C)[C@@H](CC(C)C)C(=O)N[C@@H](C)C(=O)O[C@H](C(C)C)C(=O)N(C)[C@@H](CC(C)C)C(=O)N[C@@H](CC(C)C)C(=O)N(C)[C@@H](C(C)C)C(=O)N1C [(Ih), cyclo-(MeBmt-Val-D-MeAla-EtVal-Leu-MeLeu-Ala-D-Hiv-MeLeu-Leu-MeVal)] (cyclo(A[dHiv][NMeL]L[NMeV][MeBmt]V[dNMeA][NEtVal]L[NMeL])) | – | 20500 nM | 22 nM | n.i. | 300 nM | 0.80 | 1740 nM | n.i. | 12000 nM | 0.04 | – | – | – | –
8 | C/C=C/C[C@@H](C)[C@@H](O)[C@H]1C(=O)N[C@@H](CC)C(=O)N(C)[C@H](C)C(=O)N(C)[C@@H]([C@@H](C)CC)C(=O)N[C@@H](CC(C)C)C(=O)N(C)[C@@H](CC(C)C)C(=O)NCC(=O)O[C@H](C(C)C)C(=O)N(C)[C@@H](CC(C)C)C(=O)N[C@@H](CC(C)C)C(=O)N(C)[C@@H](C(C)C)C(=O)N1C [(Ii), cyclo-(MeBmt-Abu-D-MeAla-MeIle-Leu-MeLeu-Gly-D-Hiv-MeLeu-Leu-MeVal)] (cyclo([Abu][dNMeA][NMeI]L[NMeL]G[dHiv][NMeL]L[NMeV][MeBmt])) | 25400 nM | – | – | – | – | – | – | – | – | – | – | – | – | –
